Experimental data reported in US20190085024A1, “Alpha-Ketoamide Inhibitors Of Cysteine Proteases” (Phelix Therapeutics, priority 2017, published 2019).
pKi: −log10 of the molar value. *1 amine or outer side, *2 acyl side, *3 side chain or, on linkers, in order; H or OH if unused. Where a SMILES comes first, the peptide text is derived from it. [ ]: non-standard residue; d: D form. 2Nal = N[CH](Cc1ccc2ccccc2c1)C(=O)O; X1 = CCC(C)C(N[*:1])C(=O)C(=O)[*:2]

Assays:
Cathepsin L = Cathepsin L (Homo sapiens, UniProt P07711); assay: Cathepsin L enzyme assay; assay type: biochemical; settings: Ki by Morrison equation; pH 5.5, substrate Z-Phe-Arg-Amc; read-out: Cat L
Cathepsin L, sequence (P07711 114-333, species assumed): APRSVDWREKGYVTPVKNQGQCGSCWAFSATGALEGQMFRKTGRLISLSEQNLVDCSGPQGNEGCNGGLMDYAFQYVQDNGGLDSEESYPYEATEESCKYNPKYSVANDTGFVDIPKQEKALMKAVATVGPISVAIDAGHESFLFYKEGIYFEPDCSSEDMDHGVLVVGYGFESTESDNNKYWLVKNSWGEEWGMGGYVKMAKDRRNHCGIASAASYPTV
Source text: Two wells contained DMSO only for controls.
Velocity was converted to μM/sec.

Calpain = Calpain enzyme assay; assay type: biochemical; settings: Ki by Morrison equation; pH 7.5, 5 mM CaCl2

## CCC(C)C(NC(=O)C(=O)CCNC(=O)Cc1ccccc1)C(=O)NC(C)(C)C(=O)O (centres unmarked) [PHELIX133, 2-methyl-2-(3-methyl-2-(2-oxo-4-(2-phenylacetamido)butanamido)pentanamido)propanoic acid]
Cathepsin L
  pKi: 3.68

## CC(NC(=O)C(Cc1ccccc1)NC(=O)Cc1ccccc1)C(=O)C(=O)NC(Cc1ccccc1)C(=O)NC(Cc1ccc(-c2ccccc2)cc1)C(N)=O (centres unmarked) [PHELIX213, N-(1-((3-([1,1′-biphenyl]-4-yl)-1-amino-1-oxopropan-2-yl)amino)-1-oxo-3-phenylpropan-2-yl)-2-oxo-3-(3-phenyl-2-(2-phenylacetamido)propanamido)butanamide]
Calpain
  pKi: < 5.00

## CC(NC(=O)C(Cc1ccccc1)NC(=O)Cc1ccccc1)C(=O)C(=O)NC(Cc1ccccc1)C(=O)NC(Cc1ccc2ccccc2c1)C(N)=O (centres unmarked) [PHELIX216, N-(1-((1-amino-3-(naphthalen-2-yl)-1-oxopropan-2-yl)amino)-1-oxo-3-phenylpropan-2-yl)-2-oxo-3-(3-phenyl-2-(2-phenylacetamido)propanamido)butanamide]
Cathepsin L
  pKi: < 3.00
Calpain
  pKi: < 4.00

## CCC(C)C(NC(=O)C(=O)C(C)NC(=O)C(Cc1ccccc1)NC(=O)Cc1ccccc1)C(=O)NC1(C(=O)O)CCCC1 (centres unmarked) [PHELIX217, 1-(3-methyl-2-(2-oxo-3-(3-phenyl-2-(2-phenylacetamido)propanamido)butanamido)pentanamido)cyclopentane-1-carboxylic acid]
Cathepsin L
  pKi: 2.97
Calpain
  pKi: < 4.00

## CCC(C)C(NC(=O)C(=O)CCNC(=O)C(Cc1ccccc1)NC(=O)Cc1ccccc1)C(=O)NC(C)(C)C(=O)O (centres unmarked) [PHELIX218, 13-benzyl-5-(sec-butyl)-2,2-dimethyl-4,7,8,12,15-pentaoxo-16-phenyl-3,6,11,14-tetraazahexadecanoic acid]
Cathepsin L
  pKi: < 3.00

## CC(NC(=O)C(Cc1ccccc1)NC(=O)Cc1ccccc1)C(=O)C(=O)NC(Cc1ccccc1)C(=O)NC(Cc1ccc(-c2ccccc2)cc1)C(N)=O (centres unmarked) [PHELIX247, N-(1-((3-([1,1′-biphenyl]-4-yl)-1-amino-1-oxopropan-2-yl)amino)-1-oxo-3-phenylpropan-2-yl)-2-oxo-3-(3-phenyl-2-(2-phenylacetamido)propanamido)butanamide]
Calpain
  pKi: < 5.00

## CC(NC(=O)C(Cc1ccccc1)NC(=O)Cc1ccccc1)C(=O)C(=O)NC(Cc1ccccc1)C(=O)NC(Cc1ccc(-c2ccccc2)cc1)C(N)=O (centres unmarked) [PHELIX248, N-(1-((3-([1,1′-biphenyl]-4-yl)-1-amino-1-oxopropan-2-yl)amino)-1-oxo-3-phenylpropan-2-yl)-2-oxo-3-(3-phenyl-2-(2-phenylacetamido)propanamido)butanamide]
Calpain
  pKi: < 5.00

## CCC(C)C(NC(=O)C(CC(C)C)NC(=O)OCc1ccccc1)C(=O)C(=O)NCC(=O)NC(Cc1ccc2ccccc2c1)C(N)=O (centres unmarked) [PHELIX257, benzyl (1-((1-((2-((1-amino-3-(naphthalen-2-yl)-1-oxopropan-2-yl)amino)-2-oxoethyl)amino)-4-methyl-1,2-dioxohexan-3-yl)amino)-4-methyl-1-oxopentan-2-yl)carbamate]
Calpain
  pKi: 9.04

## CCC(C)C(NC(=O)C(CC(C)C)NC(=O)OCc1ccccc1)C(=O)C(=O)NC(CCCNC(=N)N)C(=O)NC(Cc1ccc2ccccc2c1)C(N)=O (centres unmarked) [PHELIX289, benzyl (1-((1-((1-((1-amino-3-(naphthalen-2-yl)-1-oxopropan-2-yl)amino)-5-guanidino-1-oxopentan-2-yl)amino)-4-methyl-1,2-dioxohexan-3-yl)amino)-4-methyl-1-oxopentan-2-yl)carbamate]
Cathepsin L
  pKi: > 9.70
Calpain
  pKi: 7.69

## CC[C@H](C)C(NC(=O)[C@H](CC(C)C)NC(=O)OCc1ccccc1)C(=O)C(=O)N[C@@H](CCCNC(=N)N)C(N)=O (some centres unmarked) [PHELIX290, benzyl (1-((1-((1-amino-5-guanidino-1-oxopentan-2-yl)amino)-4-methyl-1,2-dioxohexan-3-yl)amino)-4-methyl-1-oxopentan-2-yl)carbamate]
Cathepsin L
  pKi: 8.57
Calpain
  pKi: 8.14

## CCC(C)C(NC(=O)C(CC(C)C)NC(=O)OCc1ccccc1)C(=O)C(=O)N(C)CC(=O)NC(Cc1ccc2ccccc2c1)C(N)=O (centres unmarked) [PHELIX291, benzyl (1-((1-((2-((1-amino-3-(naphthalen-2-yl)-1-oxopropan-2-yl)amino)-2-oxoethyl)(methyl)amino)-4-methyl-1,2-dioxohexan-3-yl)amino)-4-methyl-1-oxopentan-2-yl)carbamate]
Cathepsin L
  pKi: 5.23
Calpain
  pKi: < 5.00

## CCC(C)C(C(=O)C(=O)NCC(=O)NC(Cc1ccc2ccccc2c1)C(N)=O)N(C)C(=O)C(CC(C)C)NC(=O)OCc1ccccc1 (centres unmarked) [PHELIX292, benzyl (1-((1-((2-((1-amino-3-(naphthalen-2-yl)-1-oxopropan-2-yl)amino)-2-oxoethyl)amino)-4-methyl-1,2-dioxohexan-3-yl)(methyl)amino)-4-methyl-1-oxopentan-2-yl)carbamate]
Cathepsin L
  pKi: 7.43
Calpain
  pKi: 5.37

## CCC(C)C(NC(=O)C(CC(C)C)NC(=O)OCc1ccccc1)C(=O)C(=O)NCC(=O)NC(Cc1ccc2ccccc2c1)C(N)=O (centres unmarked) [PHELIX293, benzyl (1-((1-((2-((1-amino-3-(naphthalen-2-yl)-1-oxopropan-2-yl)amino)-2-oxoethyl)amino)-4-methyl-1,2-dioxohexan-3-yl)amino)-4-methyl-1-oxopentan-2-yl)carbamate]
Calpain
  pKi: 5.92

## CCC(C)C(NC(=O)C(CC(C)C)NC(=O)C(Cc1ccccc1)NC(=O)OCc1ccccc1)C(=O)C(=O)NC(CCCNC(=N)N)C(N)=O (centres unmarked) [PHELIX294, benzyl (1-amino-10-(sec-butyl)-6-carbamoyl-1-imino-13-isobutyl-8,9,12,15-tetraoxo-17-phenyl-2,7,11,14-tetraazaheptadecan-16-yl)carbamate]
Cathepsin L
  pKi: 8.60
Calpain
  pKi: 9.31

## CCC(C)C(NC(=O)C(CC(C)C)NC(=O)OCc1ccccc1)C(=O)C(=O)NC(C)C(=O)NC(Cc1ccc2ccccc2c1)C(N)=O (centres unmarked) [PHELIX295, benzyl (1-((1-((1-((1-amino-3-(naphthalen-2-yl)-1-oxopropan-2-yl)amino)-1-oxopropan-2-yl)amino)-4-methyl-1,2-dioxohexan-3-yl)amino)-4-methyl-1-oxopentan-2-yl)carbamate]
Cathepsin L
  pKi: 9.08
Calpain
  pKi: 8.69

## CCC(C)C(NC(=O)C(CC(C)C)NC(=O)OCc1ccccc1)C(=O)C(=O)NC(C)(C)C(=O)NC(Cc1ccc2ccccc2c1)C(N)=O (centres unmarked) [PHELIX296, benzyl (1-((1-((1-((1-amino-3-(naphthalen-2-yl)-1-oxopropan-2-yl)amino)-2-methyl-1-oxopropan-2-yl)amino)-4-methyl-1,2-dioxohexan-3-yl)amino)-4-methyl-1-oxopentan-2-yl)carbamate]
Cathepsin L
  pKi: 5.76
Calpain
  pKi: 5.81

## CCC(C)C(NC(=O)C(CC(C)C)NC(=O)OCc1ccccc1)C(=O)C(=O)NC1(C(=O)NC(Cc2ccc3ccccc3c2)C(N)=O)CC1 (centres unmarked) [PHELIX298, benzyl (1-((1-((1-((1-amino-3-(naphthalen-2-yl)-1-oxopropan-2-yl)carbamoyl)cyclopropyl)amino)-4-methyl-1,2-dioxohexan-3-yl)amino)-4-methyl-1-oxopentan-2-yl)carbamate]
Cathepsin L
  pKi: 6.50
Calpain
  pKi: 5.59

## CCC(C)C(NC(=O)C(CC1CC1)NC(=O)OCc1ccccc1)C(=O)C(=O)NCC(=O)NC(Cc1ccc2ccccc2c1)C(N)=O (centres unmarked) [PHELIX299, benzyl (1-((1-((2-((1-amino-3-(naphthalen-2-yl)-1-oxopropan-2-yl)amino)-2-oxoethyl)amino)-4-methyl-1,2-dioxohexan-3-yl)amino)-3-cyclopropyl-1-oxopropan-2-yl)carbamate]
Cathepsin L
  pKi: 7.91
Calpain
  pKi: 8.32

## CCC(C)C(NC(=O)C(Cc1c[nH]cn1)NC(=O)Cc1ccccc1)C(=O)C(=O)NCC(=O)NC(Cc1ccc2ccccc2c1)C(N)=O (centres unmarked) [PHELIX302, 3-(3-(1H-imidazol-4-yl)-2-(2-phenylacetamido)propanamido)-N-(2-((1-amino-3-(naphthalen-2-yl)-1-oxopropan-2-yl)amino)-2-oxoethyl)-4-methyl-2-oxohexanamide]
Cathepsin L
  pKi: 6.41
Calpain
  pKi: 6.70

## CCC(C)C(NC(=O)C(CC(C)C)NC(=O)OCc1ccccc1)C(=O)C(=O)NCC(=O)NCc1ccc2ccccc2c1 (centres unmarked) [PHELIX303, benzyl (4-methyl-1-((4-methyl-1-((2-((naphthalen-2-ylmethyl)amino)-2-oxoethyl)amino)-1,2-dioxohexan-3-yl)amino)-1-oxopentan-2-yl)carbamate]
Cathepsin L
  pKi: 8.94
Calpain
  pKi: 8.22

## CCC(C)C(NC(=O)C(CC(C)C)NC(C)=O)C(=O)C(=O)NCC(=O)NC(Cc1ccc2ccccc2c1)C(N)=O (centres unmarked) [PHELIX307, 3-(2-acetamido-4-methylpentanamido)-N-(2-((1-amino-3-(naphthalen-2-yl)-1-oxopropan-2-yl)amino)-2-oxoethyl)-4-methyl-2-oxohexanamide]
Calpain
  pKi: 8.58

## CCC(C)C(NC(=O)C(CC(C)C)NC(C)=O)C(=O)C(=O)NCC(=O)NC(Cc1ccc2ccccc2c1)C(N)=O (centres unmarked) [PHELIX310]
Calpain
  pKi: 8.26

## CCC(C)C(NC(=O)CNC(=O)C(Cc1ccc2ccccc2c1)NC(C)=O)C(=O)C(=O)NC(CC(C)C)C(=O)NC(Cc1ccccc1)C(N)=O (centres unmarked) [PHELIX338, 3-(2-(2-acetamido-3-(naphthalen-2-yl)propanamido)acetamido)-N-(1-((1-amino-1-oxo-3-phenylpropan-2-yl)amino)-4-methyl-1-oxopentan-2-yl)-4-methyl-2-oxohexanamide] (Ac-[2Nal]G[X1]LF-NH2; configuration not given here)
Cathepsin L
  pKi: 5.54

## CC(C)CC(NC(=O)C(Cc1ccccc1)NC(=O)OCc1ccccc1)C(=O)NC(Cc1ccccc1)C(=O)C(=O)NC(CCCNC(=N)N)C(N)=O (centres unmarked) [PHELIX339, benzyl (1-amino-10-benzyl-6-carbamoyl-1-imino-13-isobutyl-8,9,12,15-tetraoxo-17-phenyl-2,7,11,14-tetraazaheptadecan-16-yl)carbamate]
Calpain
  pKi: 8.66

## CCC(C)C(NC(=O)C(CC(C)C)NC(=O)OCc1ccccc1)C(=O)C(=O)N(C)C(Cc1ccccc1)C(N)=O (centres unmarked) [PHELIX358, benzyl (1-((1-((1-amino-1-oxo-3-phenylpropan-2-yl)(methyl)amino)-4-methyl-1,2-dioxohexan-3-yl)amino)-4-methyl-1-oxopentan-2-yl)carbamate]
Cathepsin L
  pKi: < 6.00
